According to patent US10865191B2, “Heterocyclic compounds useful as modulators of TNF alpha” (BRISTOL-MYERS SQUIBB COMPANY, priority 2015, dated 2020):

Target: TNFα (Homo sapiens, UniProt P01375)
Assay: TNF induced HEK-Blue assay (NF-kB-driven secreted alkaline phosphatase reporter)
Type: cell-based
Conditions: TNFα 0.5 ng/mL, HEK-Blue-CD40L cells, 18 h; read-out: TNF induced HEK-Blue assay IC50 value
Summary of the method: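 HEK-Blue-CD40L cells (NF-kB-driven SEAP reporter), 20,000/well, added after 30 min pre-incubation of compound (0.004–25 μM final) with TNFα 0.5 ng/mL final at 37 °C; 18 h incubation. SEAP read with QUANTI-Blue at 620 nm; IC50 from 4-parameter logistic fit, normalized to unstimulated and stimulated DMSO controls.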

TNFα, sequence (P01375 77-233 limits assumed): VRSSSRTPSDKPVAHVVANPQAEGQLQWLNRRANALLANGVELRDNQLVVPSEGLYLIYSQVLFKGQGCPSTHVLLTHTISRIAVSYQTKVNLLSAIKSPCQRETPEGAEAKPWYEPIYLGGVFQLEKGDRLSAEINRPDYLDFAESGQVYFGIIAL

Compound | IC50 [nM]
C[C@@H](Nc1c(Cl)c(C(=O)Nc2cccnc2)nc2ccc(-c3cnc(C(C)(C)O)nc3)cc12)c1cc(C(N)=O)ccc1F [Example 395, (R)-4-((1-(5-carbamoyl-2-fluorophenyl)ethyl)amino)-3-chloro-6-(2-(2-hydroxypropan-2-yl)pyrimidin-5-yl)-N-(pyridin-3-yl)quinoline-2-carboxamide] | 1000 to 10000
Cc1nc2cc(F)c(-c3ccc(=O)[nH]c3)cc2c(N[C@H](C)c2cc(C#N)ccc2F)c1Cl [Example 450, (R)-3-(1-((3-chloro-7-fluoro-2-methyl-6-(6-oxo-1,6-dihydropyridin-3-yl)quinolin-4-yl)amino)ethyl)-4-fluorobenzonitrile] | < 1000
COc1ccc(F)c([C@@H](C)Nc2c(Cl)c(C)nc3ccc(Br)cc23)c1 [Example 328, (R)-6-bromo-3-chloro-N-(1-(2-fluoro-5-methoxyphenyl)ethyl)-2-methylquinolin-4-amine] | 1000 to 10000
COc1ccc(F)c([C@H](C)Nc2c(Cl)cnc3ccccc23)c1 [Example 476, (S)-3-chloro-N-(1-(2-fluoro-5-methoxyphenyl)ethyl)quinolin-4-amine] | 1000 to 10000
Cc1ccc(C)c(C(C)Nc2c(Cl)cnc3ccc(-c4cnc(C(C)(C)O)nc4)cc23)c1 (racemic) [Example 149, 2-(5-(3-chloro-4-((1-(2,5-dimethylphenyl)ethyl)amino)quinolin-6-yl)pyrimidin-2-yl)propan-2-ol] | 1000 to 10000
C=Cc1cccc([C@@H](C)Nc2c(Cl)c(C)nc3cc(F)c(-c4cnc(C(C)(C)O)nc4)nc23)c1 [Example 571, (R)-2-(5-(7-chloro-3-fluoro-6-methyl-8-((1-(3-vinylphenyl)ethyl)amino)-1,5-naphthyridin-2-yl)pyrimidin-2-yl)propan-2-ol] | < 1000
C[C@@H](Nc1c(Cl)cnc2ccc(-c3cnc(C(C)(C)O)nc3)cc12)c1cc(C(O)CO)ccc1F (single isomer, unassigned) [Example 401] | < 1000
CC(Nc1c(Cl)cnc2cc(F)c(-c3ccc(C(O)CO)cc3)cc12)c1cc(C(N)=O)ccc1F (single isomer, unassigned) [Example 601, 3-(1-((3-chloro-6-(4-(1,2-dihydroxyethyl)phenyl)-7-fluoroquinolin-4-yl)amino)ethyl)-4-fluorobenzamide] | < 1000
Cc1nc2ccc(-c3ccc(C(C)(C)O)cc3)cc2c(N[C@H](C)c2cc(C(N)=O)ccc2F)c1Cl [Example 312, (R)-3-(1-((3-chloro-6-(4-(2-hydroxypropan-2-yl)phenyl)-2-methylquinolin-4-yl)amino)ethyl)-4-fluorobenzamide] | < 1000
C[C@@H](Nc1c(Cl)cnc2ccc(-c3cnc(C(C)(C)O)nc3)cc12)c1cc(S(C)(=O)=O)ccc1F [Example 425, (R)-2-(5-(3-chloro-4-((1-(2-fluoro-5-(methylsulfonyl)phenyl)ethyl)amino)quinolin-6-yl)pyrimidin-2-yl)propan-2-ol] | < 1000
CC(Nc1c(Cl)cnc2ccc(-c3cnc(C(C)(C)O)nc3)cc12)c1ncccc1F (racemic) [Example 171, 2-(5-(3-chloro-4-((1-(3-fluoropyridin-2-yl)ethyl)amino)quinolin-6-yl)pyrimidin-2-yl)propan-2-ol] | < 1000
C=CCc1ccc(F)c([C@@H](C)Nc2c(Cl)cnc3ccccc23)c1 [Example 452, (R)—N-(1-(5-allyl-2-fluorophenyl)ethyl)-3-chloroquinolin-4-amine] | 1000 to 10000
C[C@@H](Nc1c(Cl)cnc2ccc(-c3cnc(N4CCN([C@@H](CNC(=O)OC(C)(C)C)C(=O)O)CC4)nc3)cc12)c1ccccc1F [Example 93, (S)-3-((tert-butoxycarbonyl)amino)-2-(4-(5-(3-chloro-4-(((R)-1-(2-fluorophenyl)ethyl)amino)quinolin-6-yl)pyrimidin-2-yl)piperazin-1-yl)propanoic acid] | 1000 to 10000
CC(Nc1c(Cl)cnc2cc(F)c(-c3cnc(C(O)CN4CCC(C(=O)O)CC4)nc3)cc12)c1ccccc1F (single isomer, unassigned) [Example 610, 1-(2-(5-(3-chloro-7-fluoro-4-((1-(2-fluorophenyl)ethyl)amino)quinolin-6-yl)pyrimidin-2-yl)-2-hydroxyethyl) piperidine-4-carboxylic acid] | < 1000
C[C@@H](Nc1c(Cl)cnc2cnc(-c3cnc(N4CCN(CC(=O)O)CC4)nc3)cc12)c1ccccc1F (single isomer, unassigned) [Example 235] | 10000 to 25000
Cc1ccc(-c2ccc(F)c([C@@H](C)Nc3c(Cl)cnc4ccccc34)c2)cn1 [Example 518, (R)-3-chloro-N-(1-(2-fluoro-5-(6-methylpyridin-3-yl)phenyl)ethyl)quinolin-4-amine] | < 1000
CC(C)(O)c1ncc(-c2nc3c(N[C@@H](c4ccccc4F)C(F)F)c(Cl)cnc3cc2F)cn1 [Example 207, (S)-2-(5-(7-chloro-8-((2,2-difluoro-1-(2-fluorophenyl)ethyl)amino)-3-fluoro-1,5-naphthyridin-2-yl)pyrimidin-2-yl)propan-2-ol] | < 1000
Cc1nc2ccc(-c3cnc(N4CCNC(=O)C4)nc3)cc2c(N[C@H](C)c2cc(C(N)=O)ccc2F)c1Cl [Example 447, (R)-3-(1-((3-chloro-2-methyl-6-(2-(3-oxopiperazin-1-yl)pyrimidin-5-yl)quinolin-4-yl)amino)ethyl)-4-fluorobenzamide] | < 1000

Results, then the compound that gave them:

IC50 [nM] | Compound
< 1000 | C[C@@H](Nc1c(Cl)cnc2ccc(-c3ccc(N4CCC(CC(=O)O)CC4)nc3)cc12)c1ccccc1F [Example 82, (R)-2-(1-(5-(3-chloro-4-((1-(2-fluorophenyl)ethyl)amino)quinolin-6-yl)pyridin-2-yl)piperidin-4-yl)acetic acid]
< 1000 | Cc1nc2ccc(-c3cnc(C(C)(C)O)nc3)cc2c(N[C@H](C)c2cc(CO)ccc2F)c1Cl [Example 431, (R)-2-(5-(3-chloro-4-((1-(2-fluoro-5-(hydroxymethyl)phenyl)ethyl)amino)-2-methylquinolin-6-yl)pyrimidin-2-yl)propan-2-ol]
< 1000 | Cc1ccc(C)c(Nc2c(Cl)c(C(=O)Nc3ccncc3)nc3ccc(-c4ccc(C#N)nc4)cc23)c1 [Example 36, 3-chloro-6-(6-cyanopyridin-3-yl)-4-((2,5-dimethylphenyl)amino)-N-(pyridin-4-yl)quinoline-2-carboxamide]
< 1000 | C[C@@H](Nc1c(Cl)cnc2cc(F)c(-c3cnc(C(C)(C)O)nc3)nc12)c1ccccc1 [Example 193, (R)-2-(5-(7-chloro-3-fluoro-8-((1-phenylethyl)amino)-1,5-naphthyridin-2-yl)pyrimidin-2-yl)propan-2-ol]
< 1000 | CC(Nc1c(Cl)cnc2cc(F)c(-c3ccc(C4(O)CCC(C(=O)O)CC4)cc3)cc12)c1ccccc1F (racemic) [Example 251, 4-(4-(3-chloro-7-fluoro-4-((1-(2-fluorophenyl)ethyl)amino)quinolin-6-yl)phenyl)-4-hydroxycyclohexane-1-carboxylic acid]
< 1000 | CC(Nc1c(Cl)cnc2ccc(-c3ccc(C(C)(C)O)cc3)cc12)c1ccsc1 (racemic) [Example 196, 2-(4-(3-chloro-4-((1-(thiophen-3-yl)ethyl)amino)quinolin-6-yl)phenyl)propan-2-ol]
1000 to 10000 | CC(C)(O)c1ncc(-c2ccc3ncc(Cl)c(NC(c4ccccc4F)C(F)(F)F)c3c2)cn1 (racemic) [Example 164, 2-(5-(3-chloro-4-((2,2,2-trifluoro-1-(2-fluorophenyl)ethyl)amino)quinolin-6-yl)pyrimidin-2-yl)propan-2-ol]
< 1000 | CC(Nc1c(Cl)cnc2ccc(-c3cnc(C(C)(C)O)nc3)cc12)c1cc(F)ccc1F (racemic) [Example 160, 2-(5-(3-chloro-4-((1-(2,5-difluorophenyl)ethyl)amino)quinolin-6-yl)pyrimidin-2-yl)propan-2-ol]
< 1000 | Cc1nc2ccccc2c(N[C@H](C)c2cc(-c3cccnc3)ccc2F)c1Cl [Example 531, (R)-3-chloro-N-(1-(2-fluoro-5-(pyridin-3-yl)phenyl)ethyl)-2-methylquinolin-4-amine]
< 1000 | COc1ccc(-c2ccc(F)c([C@@H](C)Nc3c(Cl)cnc4ccccc34)c2)cn1 [Example 460, (R)-3-chloro-N-(1-(2-fluoro-5-(6-methoxypyridin-3-yl)phenyl)ethyl)quinolin-4-amine]
< 1000 | Cc1ccc(C)c(Nc2c(Cl)c(CO)nc3ccc(-c4cnc(C(C)(C)O)nc4)cc23)c1 [Example 44, 2-(5-(3-chloro-4-((2,5-dimethylphenyl)amino)-2-(hydroxymethyl)quinolin-6-yl)pyrimidin-2-yl)propan-2-ol]
10000 to 25000 | C[C@H](Nc1c(Cl)cnc2ccc(-c3cnc(C(C)(C)O)nc3)cc12)C1CCCCC1 [Example 59, (S)-2-(5-(3-chloro-4-((1-cyclohexylethyl)amino)quinolin-6-yl)pyrimidin-2-yl)propan-2-ol]
< 1000 | C[C@@H](Nc1c(Cl)cnc2ccc(-c3cnc(C(C)(C)O)nc3)cc12)c1cc(-c2cnn(CC(C)(C)O)c2)ccc1F [Example 349, (R)-1-(4-(3-(1-((3-chloro-6-(2-(2-hydroxypropan-2-yl)pyrimidin-5-yl)quinolin-4-yl)amino)ethyl)-4-fluorophenyl)-1H-pyrazol-1-yl)-2-methylpropan-2-ol]
< 1000 | C[C@@H](Nc1c(Cl)cnc2ccc(-c3cnc(C(C)(C)O)nc3)cc12)c1cc(C2NC(=O)NC2=O)ccc1F (single isomer, unassigned) [Example 422]
< 1000 | C[C@@H](Nc1c(Cl)cnc2ccc(-c3cnc(C(C)(C)O)nc3)cc12)c1cc(N2CCOCC2=O)ccc1F [Example 369, (R)-4-(3-(1-((3-chloro-6-(2-(2-hydroxypropan-2-yl)pyrimidin-5-yl)quinolin-4-yl)amino)ethyl)-4-fluorophenyl) morpholin-3-one]
